Measurements from patent US8569242B2, “Method of treating degenerative disorders of the nervous system” (The Regents of the University of California, priority 2005, dated 2013).
Where “and” joins values, the source holds several entries; their conditions need not be identical. Identical values can stand only once.

Experiments:
primary microglia = assay: Morphometry of microglia activation (Isolectin B4 staining, cell size); type: cell-based, mouse
Description: Culture of primary microglia cells. Microglia were isolated from cultures of mixed cortical cells as described (59). In brief, cortices from P1 mice were isolated and digested with trypsin (0.4%) for 20 minutes at 37° C. Cells from 4 pups were plated onto PDL-coated 75 cm2 tissue-culture flasks. The culture medium (DMEM, 10% heat-inactivated FBS, and 1% Pen/Strep) was changed on day 2. After 2-3 weeks in culture, the microglia were removed by the addition of 12 mM lidocaine (Sigma-Aldrich, St. Louis, Mo.) and orbital shaking (180 rpm) for 20 minutes at 37° C. The cells were centrifuged (350×G) and the pellet was resuspended in complete medium and plated onto PDL-coated tissue culture dishes. Microglia cell cultures were >95% pure as determined with three different markers, IsoB4, IBA-1 and CD11b. To immobilize fibrinogen, tissue culture dishes were incubated overnight with 50 μg/mL fibrinogen (Calbiochem, San Diego, Calif.) in 20 mM Tris (pH 7.5) and 0.1 M NaCl at 37° C. for all fibrinogen treatments. To serve as positive controls, LPS (Sigma-Aldrich, St. Louis, Mo.) was added to the media at 1 μg/mL.
Morphometry. Primary microglia were used for all morphologic analysis. Cells were plated on coated fibrinogen or in the presence of LPS for 72 hours. Microglia were fixed with methanol and immunostained with Isolectin B4 (1:300, Sigma-Aldrich, St. Louis, Mo.). Activated microglia were quantificated as those cells larger than 2,000 μm^2. Blocking experiments involved the daily administration of rat anti-CD11b (10 μg/mL, eBioscience, San Diego, Calif.), γ^377-395 peptide (200 μM) or rat IgG (10 μg/mL, Jackson ImmunoResearch Laboratories, West Grove, Pa.). Results were obtained from six separate experiments performed in duplicates. 250 cells per condition were counted for each individual experiment. Statistical calculations were made by using Student's t test.

[1] = system: primary murine microglia and a murine microglia cell line (BV2); assay: Vybrant phagocytosis assay in microglia; type: cell-based, mouse; conditions: fluorescent E. coli; stimulation with immobilized fibrinogen or LPS
Description: Phagocytosis assay. Phagocytosis assays were performed on both primary murine microglia and a murine microglia cell line (BV2). BV2 cells are an established cell line used to study microglia responses (46). BV2 cells were routinely passaged in DMEM, 20% heat inactivated FBS, and 1% Pen/Strep. Microglia phagocytosis was assessed using the Vybrant phagocytosis assay kit (Molecular Probes, Eugene, Oreg.) according to the manufacturer's recommendations. Microglia were cultured in 96-well plates at 5,000 cells/well for 36 hours at 37° C. Blocking experiments included the addition of LY294002 (1 μM, Cell Signaling, Beverly, Mass.), rat anti-CD11b ([…], eBioscience, San Diego, Calif.), rat anti-TLR4 (10 μg/mL, eBioscience, San Diego, Calif.) or rat IgG (10 μg/mL, Jackson ImmunoResearch Laboratories, West Grove, Pa.) to the media. Results were obtained from four separate experiments performed in triplicates. Statistical calculations were made by using Student's t-test.

RhoA = RhoA activation (GST-Rhotekin pull-down, immunoblot) in microglia; type: cell-based, mouse; conditions: fibrinogen 6 hours, LPS 10 minutes; densitometry
Description: (§1) Immunoblots. Western blots were performed using standard protocols (55). Microglia were serum-starved overnight and plated on fibrinogen or with LPS for 6 hours. Lysates were electrophoresed on 4-12% gradient SDS-PAGE gels and probed with phospho and total Akt antibodies (1:1000, Cell Signaling, Beverly, Mass.). RhoA activation was performed as described (60). Briefly, 2×107 microglia were plated on fibrinogen for 6 hours or with LPS for 10 minutes. Cell lysates were incubated with GST-Rhotekin agarose beads (kindly provided by Dr. Joan Heller Brown, UCSD) for 45 minutes at 4° C. The beads were washed, resuspended in Laemmli sample buffer, and electophoresed on a 15% SDS-PAGE gel. Activated and total Rho were detected with mouse anti-RhoA (1:500, Santa Cruz Biotechnology, Santa Cruz, Calif.). Densitometry was performed using the NIH Scion Image software using three blots from three separate experiments.

Akt = Akt phosphorylation immunoblot in microglia; type: cell-based, mouse; conditions: fibrinogen or LPS 6 hours; densitometry
Description: as §1

fibrin = biological target: T1, fibrin (Mus musculus, UniProt E9PV24+Q8K0E8+Q8VCM7); assay: In vitro fibrin polymerization turbidity assay in plasma; type: biochemical; conditions: citrate plasma, bovine thrombin 0.2 U/ml, OD350
T1 construct: from tissue; host or cells: citrated mouse plasma, diluted tenfold
T1 sequence (Q8VCM7 26-436): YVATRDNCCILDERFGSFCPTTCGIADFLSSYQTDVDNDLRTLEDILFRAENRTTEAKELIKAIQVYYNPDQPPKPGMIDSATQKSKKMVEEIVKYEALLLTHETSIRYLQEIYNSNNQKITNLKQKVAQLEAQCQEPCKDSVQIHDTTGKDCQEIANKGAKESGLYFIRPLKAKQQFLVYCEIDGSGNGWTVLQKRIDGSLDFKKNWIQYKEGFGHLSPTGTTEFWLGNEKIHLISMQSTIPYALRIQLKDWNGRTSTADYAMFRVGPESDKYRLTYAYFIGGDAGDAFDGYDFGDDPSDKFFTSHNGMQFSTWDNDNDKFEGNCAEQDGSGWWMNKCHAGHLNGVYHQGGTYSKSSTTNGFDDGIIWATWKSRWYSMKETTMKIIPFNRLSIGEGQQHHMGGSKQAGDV
T1 sequence (E9PV24 37-789 limits assumed): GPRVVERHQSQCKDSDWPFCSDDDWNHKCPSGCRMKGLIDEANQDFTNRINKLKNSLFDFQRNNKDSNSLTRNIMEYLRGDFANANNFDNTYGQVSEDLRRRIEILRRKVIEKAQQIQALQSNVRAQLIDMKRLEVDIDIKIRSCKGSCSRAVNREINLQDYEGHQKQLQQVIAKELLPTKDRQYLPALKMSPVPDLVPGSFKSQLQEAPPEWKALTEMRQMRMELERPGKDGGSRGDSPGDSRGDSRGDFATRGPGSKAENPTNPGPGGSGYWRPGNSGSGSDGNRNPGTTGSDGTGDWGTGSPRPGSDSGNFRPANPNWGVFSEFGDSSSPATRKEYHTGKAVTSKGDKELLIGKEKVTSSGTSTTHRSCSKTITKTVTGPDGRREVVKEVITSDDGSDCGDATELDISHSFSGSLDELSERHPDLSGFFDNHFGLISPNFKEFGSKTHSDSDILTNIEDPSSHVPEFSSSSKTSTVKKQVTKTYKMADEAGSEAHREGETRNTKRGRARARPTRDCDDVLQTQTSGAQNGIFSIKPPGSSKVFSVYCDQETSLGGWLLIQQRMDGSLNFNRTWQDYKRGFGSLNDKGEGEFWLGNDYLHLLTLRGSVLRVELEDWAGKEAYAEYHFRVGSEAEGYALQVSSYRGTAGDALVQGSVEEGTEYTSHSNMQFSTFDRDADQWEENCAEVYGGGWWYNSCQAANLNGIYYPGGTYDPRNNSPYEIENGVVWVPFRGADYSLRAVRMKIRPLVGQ
T1 sequence (Q8K0E8 35-481 limits assumed): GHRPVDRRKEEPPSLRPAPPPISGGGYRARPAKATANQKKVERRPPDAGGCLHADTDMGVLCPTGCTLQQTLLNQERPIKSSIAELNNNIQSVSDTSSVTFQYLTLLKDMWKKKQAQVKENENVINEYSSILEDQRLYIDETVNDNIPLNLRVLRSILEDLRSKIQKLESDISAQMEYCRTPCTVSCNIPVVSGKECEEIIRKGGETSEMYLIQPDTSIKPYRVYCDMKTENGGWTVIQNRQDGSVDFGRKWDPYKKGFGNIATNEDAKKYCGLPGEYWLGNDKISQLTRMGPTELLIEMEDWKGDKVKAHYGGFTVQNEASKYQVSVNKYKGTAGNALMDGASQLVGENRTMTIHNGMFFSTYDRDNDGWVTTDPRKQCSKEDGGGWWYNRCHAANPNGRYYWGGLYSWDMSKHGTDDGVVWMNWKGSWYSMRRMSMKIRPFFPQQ
Description: Hematological Analyses. Citrated plasma was prepared from mice administered intranasally 30 μg or 90 μg of γ^377-395 peptide or saline control daily for seven days. Plasma clotting times were measured by combining 10 μl of citrated plasma with 10 μl of 2 U/ml bovine thrombin (Enzyme Research Laboratories, South Bend, Ind., USA) and 40 mM. CaCl2 in a weigh boatfloating in a 37° C. water bath. Time to clot was determined by mixing with a toothpick. Plasma thrombin times were established as described previously (15). Fibrin polymerization was evaluated by standard turbidity assays using plasma. Briefly, citrate plasma (diluted tenfold in 20 mM HEPES, pH 7.4, containing 0.15 M NaCl and 5 mM-amino caproic acid) was combined with bovine thrombin (final concentration 0.2 U/ml; Enzyme Research Laboratories, South Bend, Ind., USA), and Ca^2+ (10 mM), and OD350 measurements were taken every 30 seconds.

| Substance | changes in microglia morphology (primary microglia; soluble, not immobilized, fibrinogen, data not shown) | % of activated microglia (primary microglia; stimulation with immobilized fibrinogen alone, 72 hours, activated = cells larger than 2,000 μm^2) | increase in phagocytosis as compared to untreated controls [1] [%] | increase of active RhoA (RhoA) [fold] | increase in Akt phosphorylation (Akt) [fold] | effect on fibrin polymerization (fibrin) | effect on fibrin polymerization (fibrin; listed as GPRP) |
| --- | --- | --- | --- | --- | --- | --- | --- |
| Fibrinogen | did not induce changes in microglia morphology | 85.5±1.4% and 71±4.9% | 65.3 | 1.9 | 24 |  |  |
| GPRP [GPRP peptide, reference compound] |  |  |  |  |  | inhibits | significantly attenuated |
| Lipopolysaccharide [LPS, reference compound] |  |  | 39.1 | 2.4 | 34 |  |  |
